Data on 86 compounds can be found in PubChem BioAssay AID1645848.

Converted amounts (≈) assume the structure as drawn.

The conditions of this series: buffer; pH 7.4; 6.0 h; 150.0 µM.
`Cc1ccc(N2CCC(CNc3nc(-c4ccccc4C(C)C)ncc3F)CC2)cn1` had a solubility (kinetic) of 7.65 µg/mL (≈ 18.2 µM).

Take `COc1c(NS(=O)(=O)c2ccc(C)cc2)cccc1C(=O)Nc1nc(-c2ccccc2)cs1`: the kinetic solubility is less than 1 µg/mL.

On to `c1ccc(CNc2nc(NCc3ccccc3)c3ccccc3n2)cc1`, for which the solubility (kinetic) is less than 1 µg/mL.

As to `CCc1ccccc1OC[C@@H](O)CN[C@H]1CCCc2ccccc21`, the kinetic solubility came out at 36 µg/mL (≈ 111 µM).

`CC(C)(C)c1cc(NC(=O)Nc2ccc(-c3cn4c(n3)sc3cc(OCCN5CCOCC5)ccc34)cc2)no1` gave a kinetic solubility of less than 1 µg/mL.

For `O=C(Nc1cccc(Cc2ccccc2)c1)c1ccc(-c2cccc([N+](=O)[O-])c2)o1`, the solubility (kinetic) was less than 1 µg/mL.

In turn, `N[C@@H]1CN(c2c(F)cc3c(=O)c(C(=O)O)cn([C@@H]4C[C@@H]4F)c3c2Cl)CC12CC2` returned a kinetic solubility of more than 60 µg/mL.

In turn, `Cc1cc(N2CCN(c3ccccc3)CC2)nc(-n2nc(C)cc2C)n1` showed a kinetic solubility of 40 µg/mL (≈ 115 µM).

Turning to `Cc1nnn(C)c1-c1cnc2c3ccc(C(C)(C)O)cc3n([C@H](c3ccccc3)C3CCOCC3)c2c1`, the kinetic solubility came to 29.6 µg/mL (≈ 59.6 µM).

Compound `Cc1ccccc1C(C(=O)NC1CCCC1)N(C(=O)Cn1cnc2ccccc21)c1cccc(F)c1` (stereo unspecified) yielded a solubility (kinetic) of 12.2 µg/mL (≈ 25.1 µM).

`COc1ccc(NC(=O)c2[nH]c(C)c(C(C)=O)c2C)cc1S(=O)(=O)N1CCCCCC1` came in with a solubility (kinetic) of 3.11 µg/mL (≈ 6.94 µM).

For `CC(=O)Nc1ccc(S(=O)(=O)Nc2nccs2)cc1`, the solubility (kinetic) is more than 44 µg/mL.

In the case of `CCCCN(CC)CCCNC(=O)c1ccc2c(c1)N(Cc1ccc(C)cc1)C(=O)c1ccccc1S2`, the solubility (kinetic) is more than 76 µg/mL.

`COc1cc2nccc(Oc3ccc(NC(=O)Nc4cc(C)on4)c(Cl)c3)c2cc1OC`: the kinetic solubility is less than 1 µg/mL.

As to `COc1cccc(C(=O)Nc2ccc3c(N4CCOCC4)ncnc3c2)c1`, the solubility (kinetic) is more than 54 µg/mL.

In turn, `CCOC(=O)c1c(C)c(-c2ccccc2)n(CC(=O)NCc2ccccc2)c1C` gave a solubility (kinetic) of less than 1 µg/mL.

In the case of `O=S(=O)(c1ccccc1)c1nc(-c2ccc(F)cc2)oc1N1CCCCCC1`, the solubility (kinetic) was less than 1 µg/mL.

The compound `CC(C)c1nc2oc3c(NCCN(C)C)ncnc3c2c2c1COC(C)(C)C2` yielded a kinetic solubility of more than 57 µg/mL.

With `O=C1Nc2cc(Cl)ccc2/C1=C\c1cc(Cl)c(O)c(Cl)c1`, the solubility (kinetic) amounted to 5.95 µg/mL (≈ 17.5 µM).

With `Cc1ccc(S(=O)(=O)Nc2cnccc2C(=O)Nc2nc(-c3ccncc3)cs2)cc1`, the solubility (kinetic) was more than 67 µg/mL.

The compound `CC(C)NC(=O)c1nc(-c2ccc(Cl)nc2)c2cnccn12` showed a solubility (kinetic) of 16.5 µg/mL (≈ 52.2 µM).

Take `N#Cc1nc(-c2cccc3ccccc23)oc1Nc1ccccc1`: the solubility (kinetic) is less than 1 µg/mL.

On to `O=C(C1CCN(c2nc(-c3ccc(Br)cc3)cs2)CC1)N1CCOCC1`, for which the solubility (kinetic) was found to be 7.27 µg/mL (≈ 16.7 µM).

Regarding `Clc1ccc(C2=Nn3c(nnc3-c3ccncc3)SC2)cc1`, the kinetic solubility was determined as 1.45 µg/mL (≈ 4.42 µM).

For `Cc1ccc(S(=O)(=O)Nc2cnccc2C(=O)Nc2ccc(-n3cncn3)cc2)cc1`, the solubility (kinetic) is more than 64 µg/mL.

On to `Cc1ccc(S(=O)(=O)Nc2ccccc2C(=O)Nc2nc(-c3ccc(Cl)cc3)cs2)cc1`, for which the kinetic solubility was found to be 7.04 µg/mL (≈ 14.6 µM).

In turn, `O=C1CCC(CNC(=O)c2nc(-c3ccccc3)cc3[nH]ccc23)N1` (stereo unspecified) came in with a solubility (kinetic) of more than 74 µg/mL.

The compound `NC(=O)C1CCN(c2ncc(-c3ccc4c(c3)OCCO4)s2)CC1` registered a kinetic solubility of 4.52 µg/mL (≈ 13.1 µM).

`Cc1ccc(S(=O)(=O)Nc2cc(F)c(F)cc2C(=O)Nc2nc(-c3ccccc3)cs2)cc1` displayed a kinetic solubility of less than 1 µg/mL.

`COc1cc(-c2csc(N3CCC(C(N)=O)CC3)n2)cc(OC)c1OC` had a solubility (kinetic) of more than 56 µg/mL.

Consider `CCN1CCN(CC(=O)Nc2ccc(-c3cccc4c(=O)cc(N5CCOCC5)oc34)c3sc4ccccc4c23)CC1`, for which the solubility (kinetic) came out at 63.6 µg/mL (≈ 109 µM).

In the case of `CCOc1ccc(CNC(=O)CCCn2nc(C)c3c(C)n(-c4ccc(C)cc4)nc3c2=O)cc1`, the solubility (kinetic) turned out to be 1.48 µg/mL (≈ 3.12 µM).

Compound `CCCc1c(CC)c(=N)c2ccccc2n1C.I` showed a kinetic solubility of more than 34 µg/mL.

With `O=[S+]([O-])(Nc1ccccc1)c1ccc(NCc2cccc(Cl)c2F)cc1`, the kinetic solubility was less than 1 µg/mL.

With `FC1(F)CCN(c2nc(-c3ccncc3)nc3ccccc23)CC1`, the solubility (kinetic) is less than 1 µg/mL.

Regarding `c1ccc(Nc2cc3c(cn2)CN(Cc2c[nH]c4ccccc24)CCN3)cc1`, the solubility (kinetic) was determined as 43.7 µg/mL (≈ 118 µM).

On to `COC(=O)[C@@]12OC[C@]34[C@H]([C@@H](O)[C@@H]1O)[C@@]1(C)CC(=O)C(O)=C(C)[C@@H]1C[C@H]3OC(=O)[C@H](OC(=O)/C=C(\C)C(C)C)[C@@H]24`, for which the solubility (kinetic) is more than 81 µg/mL.

`Cc1ccc(-c2csc(Nc3ccc(S(=O)(=O)Nc4nccs4)cc3)n2)cc1C` gave a solubility (kinetic) of less than 1 µg/mL.

`C[C@@H]1CN(CC(=O)N2CC(C)(C)c3ncc(Cc4ccc(F)cc4)cc32)[C@@H](CN2CCOC[C@H]2C)CN1` returned a solubility (kinetic) of more than 75 µg/mL.

`Cc1cc(-c2nnc3n2CCCCC3)c(C)n1-c1ccc(C#N)cc1`: the kinetic solubility was more than 49 µg/mL.

`Cn1cc(S(=O)(=O)N2CCCCCC2)cc1C(=O)Nc1ccc(Cl)c(C(F)(F)F)c1` gave a kinetic solubility of less than 1 µg/mL.

Compound `Cc1ccccc1C(=O)N1CCc2cc(-c3nc(NC(=O)Cc4ccc5c(c4)OCO5)sc3C)ccc21` returned a solubility (kinetic) of less than 1 µg/mL.

For `Cc1cccc(-n2cnc3cc(C(=O)N4CCCC(C)C4)ccc32)c1` (stereo unspecified), the solubility (kinetic) worked out at 26.4 µg/mL (≈ 79.3 µM).

Turning to `Cc1sc(NC(=O)Cc2ccc3c(c2)OCO3)nc1-c1ccc2c(c1)CCN2C(=O)c1ccccc1C(F)(F)F`, the kinetic solubility is less than 1 µg/mL.

Compound `Cc1ccc(S(=O)(=O)Nc2nc3ccc(C)cc3nc2Nc2ccc3c(c2)OCO3)cc1` came in with a solubility (kinetic) of more than 66 µg/mL.

`Fc1ccc(CN2CCOC[C@H]2c2ncc(-c3ccc(Cl)s3)[nH]2)cc1` yielded a solubility (kinetic) of 5.47 µg/mL (≈ 14.5 µM).

Take `COc1ccc(/C=C2/C(=O)Nc3ccccc32)cc1O`: the solubility (kinetic) was 29.2 µg/mL (≈ 109 µM).

Compound `Fc1ccc(-c2nc(-c3ccncc3)nc3ccccc23)cc1F` had a solubility (kinetic) of less than 1 µg/mL.

Take `O=C(NCCCn1ccnc1)c1nc(-c2ccccc2)cc2[nH]ccc12`: the solubility (kinetic) was more than 77 µg/mL.

Compound `CCc1ccc(CNc2ccc3c(c2)ncn3C(C)(C)C)cc1` returned a solubility (kinetic) of 10.8 µg/mL (≈ 35.3 µM).

Take `O=C(NCCCO)c1ccc(-c2ncc3cnc(-c4cccc(F)c4)cn23)cc1`: the solubility (kinetic) was more than 86 µg/mL.

The compound `Cc1cc(C)c(C(=O)Nc2cccc([S+](=O)([O-])N3CCCCC3)c2)[nH]1` gave a solubility (kinetic) of less than 1 µg/mL.

In turn, `CN(C)c1cccc(-c2nccc(N3CCC(C(N)=O)CC3)n2)c1` yielded a kinetic solubility of more than 48 µg/mL.

On to `O=C(NCc1ccccc1)C1CCN(c2nc(-c3ccc(Br)cc3)cs2)CC1`, for which the kinetic solubility amounted to 2.48 µg/mL (≈ 5.43 µM).

For the compound `Cc1ccc(-c2cc(C(=O)Nc3cccc(S(=O)(=O)Nc4nccs4)c3)c3ccccc3n2)cc1C`, the solubility (kinetic) is less than 1 µg/mL.

As to `O=C(Nc1ccc(S(=O)(=O)Nc2nccs2)cc1)c1ccnc2ccccc12`, the kinetic solubility was determined as 2.55 µg/mL (≈ 6.2 µM).

`COc1ccc(Nc2ncc(C(=O)Nc3cccc(Cl)c3)c3ccccc23)cc1` showed a kinetic solubility of less than 1 µg/mL.

The compound `CC(C)c1ccc(-n2ncc3c(=O)n(CC(=O)Nc4cc(F)ccc4Cl)cnc32)cc1` came in with a solubility (kinetic) of less than 1 µg/mL.

For the compound `Cc1ccc(CN2C(=O)C(O)(CC(=O)c3ccc(C)cc3)c3ccccc32)cc1` (stereo unspecified), the kinetic solubility is less than 1 µg/mL.

The compound `O=C(Nc1nc(-c2ccc(F)cc2)cs1)c1ccncc1NS(=O)(=O)c1ccc(F)cc1` yielded a kinetic solubility of 30.2 µg/mL (≈ 63.9 µM).

In turn, `CCC1=Nc2cc(C(=O)NC3CCCC3)ccc2Sc2ccc(Cl)cc21` yielded a solubility (kinetic) of less than 1 µg/mL.

`CN([C@@H](Cc1ccc(OS(=O)(=O)c2cccc3cnccc23)cc1)C(=O)N1CCN(c2ccccc2)CC1)S(=O)(=O)c1cccc2cnccc12` came in with a kinetic solubility of 1.32 µg/mL (≈ 1.83 µM).

The compound `CCOC(=O)c1ccc(NC(=O)CSc2nc3c(cc2C#N)N2CCC3CC2)cc1` displayed a solubility (kinetic) of 1.15 µg/mL (≈ 2.71 µM).

On to `CCN1C(=O)c2ccccc2S(=O)c2ccc(C(=O)NCc3ccc(OC)cc3)cc21` (stereo unspecified), for which the kinetic solubility was 10.4 µg/mL (≈ 23.9 µM).

Turning to `O=C(NCC1CCOCC1)C1CC(=O)N(c2n[nH]c3cc(Br)ccc23)C1` (stereo unspecified), the solubility (kinetic) is 25.3 µg/mL (≈ 60.1 µM).

`Cc1ccc(OCCn2c(CCNC(=O)c3ccc(Cl)cc3)nc3ccccc32)cc1` yielded a solubility (kinetic) of less than 1 µg/mL.

On to `Cc1ccccc1S(=O)(=O)N1CCCC(CCC(=O)NCCN(C)C2CCCCC2)C1` (stereo unspecified), for which the solubility (kinetic) came to 11.7 µg/mL (≈ 26 µM).

For the compound `c1coc(-c2nc3ccncc3[nH]2)c1`, the solubility (kinetic) amounted to 13.9 µg/mL (≈ 75.1 µM).

`COc1cc(Nc2nc(-c3ccncc3)nc3ccccc23)ccc1N1CCN(C)CC1` registered a kinetic solubility of more than 63 µg/mL.

`O=C(CSc1ccccc1)Nc1nnc(COc2ccc(Cl)cc2)s1`: the kinetic solubility is less than 1 µg/mL.

The compound `Fc1ccc(-c2ccc(Nc3nc(-c4ccncc4)nc4ccccc34)cc2F)c(F)c1` came in with a solubility (kinetic) of less than 1 µg/mL.

`COCCNCc1ccc(-c2cc3nccc(Oc4ccc(NC(=S)NC(=O)Cc5ccc(F)cc5)cc4F)c3s2)nc1` had a solubility (kinetic) of less than 1 µg/mL.

`CCOc1ccc(CCNC(=O)c2ccnn2Cc2ccccn2)cc1OCC` returned a solubility (kinetic) of more than 58 µg/mL.

`N#Cc1cccc(S(=O)(=O)Nc2cnccc2C(=O)Nc2nc(-c3ccccc3)cs2)c1` had a kinetic solubility of 34.3 µg/mL (≈ 74.3 µM).

`COc1c(C)cc(NC(=O)c2nn(Cc3ccc(F)cc3)c3c2CN(C(=O)c2ccc[nH]2)C[C@]3(C)C(N)=O)cc1C` showed a kinetic solubility of less than 1 µg/mL.

For the compound `O=C(Nc1ccc(F)cc1F)c1cc(-c2ccc[nH]2)n[nH]1`, the solubility (kinetic) was more than 29 µg/mL.

As to `Cc1noc(C)c1-c1ccc(-c2cc(C(N)=O)c(NC(N)=O)s2)c(O[C@H]2CCNC2)c1`, the kinetic solubility was 38.5 µg/mL (≈ 87.3 µM).

Regarding `O=C(NC1CCCc2c1cnn2-c1ccc(F)cc1F)c1ccccc1` (stereo unspecified), the solubility (kinetic) is 4.29 µg/mL (≈ 12.1 µM).

As for `COc1ccc(-n2nc(C3CCN([S+](=O)([O-])c4c(C)noc4C)CC3)[nH]c2=O)cc1`, the kinetic solubility is less than 1 µg/mL.

In turn, `CS(=O)(=O)c1cccc(-c2csc(N3CCC(C(N)=O)CC3)n2)c1` showed a kinetic solubility of 11.7 µg/mL (≈ 32 µM).

`Cc1cc(C)c(CNC(=O)c2nc(-c3ccc(F)cc3)cc3c2ccn3C(C)C)c(=O)[nH]1` yielded a solubility (kinetic) of less than 1 µg/mL.

`CCCCn1cnc2cc(NCc3ccc(OCC)cc3)ccc21` showed a kinetic solubility of 10.1 µg/mL (≈ 31.2 µM).

Take `O=C(/C=C/c1cn(CC(O)CN2CCCCCC2)c2ccccc12)c1ccc(Br)cc1` (stereo unspecified): the solubility (kinetic) was less than 1 µg/mL.

Compound `O=C(NCc1cccc(C(F)(F)F)c1)c1ccc(CN2CCCCC2)cc1` showed a kinetic solubility of 46.6 µg/mL (≈ 124 µM).

With `OC1(CN2CCN(c3ccc(F)c(Cl)c3)CC2)CCCNC1` (stereo unspecified), the kinetic solubility was more than 48 µg/mL.

The compound `Cc1cc(C)cc(C(=O)Nc2ccc3c(N4CCCC4)ncnc3c2)c1` showed a kinetic solubility of less than 1 µg/mL.
